From patent US12692289B2, “Tumor-specific peptide antigens for ovarian cancer and uses thereof” (UNIVERSITE DE MONTREAL, priority 2019, dated 2026)
Peptide text beside a SMILES is read from it.

System: TCGA-OV cohort
Experiment: TCGA-OV cohort analysis: survival and immune cell scores by aeTSA RNA expression and HLA allotype
Design: species or system human
Details: immune cell scores from RNA-Seq, ANOVA, p<0.05
Excerpt: Clinical and genomic data from TCGA. Processed and normalized level 3 data with hg38 for HM27 methylation, DNA copy number variation, RNA-Seq gene expression as well as the clinical data were downloaded from the TCGA open-access database using the R package ‘TCGAbiolinks’ (31). Arm-level DNA copy number alterations were downloaded from Broad Institute TCGA Genome Data Analysis Center (doi:10.7908/C1P84B9Q).
Immune cell scores. Immune cell scores representing immune cell populations were estimated based on RNA-Seq data. For each tumor, scores were estimated as the average of log-transformed FPKM values of their marker genes as described by Danaher et al. (32).
Statistical analyses and data visualization. Analyses and figures were performed using the R v3.5.1 or Python v2.7.6. The ‘gplots’ package in R was used to generate heatmaps of TSA coding region expression in tumors. Correlation tests were done using R function ‘cor.test’ with the Spearman's method unless otherwise indicated. Tests involving comparisons of distributions were performed with ANOVA test, and pairwise comparisons between groups were performed by Wilcoxon rank sum test. Log-rank P values for survival analysis were calculated with the ‘survival’ package.

With `CSCC[C@H](NC(=O)[C@H](CCC(N)=O)NC(=O)[C@H](Cc1c[nH]cn1)NC(=O)[C@@H](NC(=O)[C@@H](N)CCCNC(=N)N)[C@@H](C)O)C(=O)N[C@@H](CC(N)=O)C(=O)N[C@H](C(=O)N[C@@H](Cc1ccccc1)C(=O)N[C@@H](CCC(N)=O)C(=O)N[C@@H](CCCNC(=N)N)C(=O)O)[C@@H](C)O` (H-RTHQMNTFQR-OH; N-terminus and C-terminus assumed) the “correlation of aeTSA expression and relevant HLA allotype with tumor infiltration by T cells and cytotoxic T cells” value was “positive correlation”.
